Calls of active or inactive are those of the source. The calls are words filed in the database; no cut-off is given here.
Molecular target: 5-hydroxytryptamine receptor 7 (Homo sapiens, UniProt P34969)
Sequence (P34969 whole entry): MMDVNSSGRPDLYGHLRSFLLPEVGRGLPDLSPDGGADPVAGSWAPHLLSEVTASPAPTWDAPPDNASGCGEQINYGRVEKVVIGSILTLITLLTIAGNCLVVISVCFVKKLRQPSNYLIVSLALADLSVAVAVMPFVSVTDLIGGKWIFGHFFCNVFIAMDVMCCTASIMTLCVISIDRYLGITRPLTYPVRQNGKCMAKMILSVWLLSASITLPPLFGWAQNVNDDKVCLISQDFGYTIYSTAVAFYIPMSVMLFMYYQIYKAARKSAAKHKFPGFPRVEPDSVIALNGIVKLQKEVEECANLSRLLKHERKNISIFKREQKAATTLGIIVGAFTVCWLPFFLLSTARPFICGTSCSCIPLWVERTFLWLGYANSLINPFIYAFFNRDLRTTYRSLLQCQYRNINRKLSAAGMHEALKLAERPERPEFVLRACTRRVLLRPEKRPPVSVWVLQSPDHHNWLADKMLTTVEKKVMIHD
Test: Displacement of [3H]-5-CT from human 5-HT7R expressed in human HEK293 cells assessed as inhibitory constant incubated for 1 hr by radioligand binding assay
Type: cell-based
Conditions: not given
`Cc1ccccc1OCc1nc(N)nc(N2CCN(C)CC2)n1` gave a Ki of 514 nM.
Compound `CN1CCN(c2nc(N)nc(COc3ccccc3Cl)n2)CC1` has a Ki of 9250 nM.
`CN1CCN(c2nc(N)nc(COc3ccccc3)n2)CC1` showed a Ki of 9530 nM.
In the case of `CC(Oc1cccc(Cl)c1)c1nc(N)nc(N2CCN(C)CC2)n1` (stereo not drawn), the Ki is reported as 8360 nM.
Work on `Cc1ccc(OCc2nc(N)nc(N3CCN(C)CC3)n2)cc1` yielded a Ki of 16100 nM.

Tested on: Rattus norvegicus
Test: Antidepressant activity in Wistar rat assessed as reduction in immobility at 10 mg/kg, ip measured after 30 mins by forced swim test
Type: functional, organism-based
Conditions: not given
For `COc1ccc(S(=O)(=O)Nc2cc(Cl)cc(Cl)c2OC)cc1N1CCNCC1`, the Activity was “Active”.

Tested on: Rattus norvegicus
Test: Antidepressant activity in Wistar rat assessed as reduction in immobility at 0.1 mg/kg, ip measured after 60 mins by forced swim test
Type: functional, organism-based
Conditions: not given
In the case of `Cc1ccc(C(C)C)c(OCc2nc(N)nc(N3CCN(C)CC3)n2)c1`, the Activity is reported as “inactive”.

Tested on: Rattus norvegicus
Test: Antidepressant activity in Wistar rat assessed as ambulation-X movement moved at 0.3 mg/kg, ip pretreated for 60 mins and measured for 5 mins by open field test (reference value: 190 +/- 12)
Type: functional
Conditions: not given
With `Cc1ccc(C(C)C)c(OCc2nc(N)nc(N3CCN(C)CC3)n2)c1` the Activity was 307.

Tested on: not listed separately
Test: Mutagenicity in Salmonella typhimurium TA100 assessed as fold increase over MCB at 10 uM preincubated for 90 mins and measured after 72 hrs by Ames test
Type: toxicity
Conditions: salmonella enterica subsp. enterica serovar typhimurium
For `Cc1ccc(C(C)C)c(OCc2nc(N)nc(N3CCN(C)CC3)n2)c1`, the “fold change (FC)” value was 0.47.

Tested on: not listed separately
Test: Mutagenicity in Salmonella typhimurium TA100 assessed as increase in revertant colonies at 10 uM preincubated for 90 mins and measured after 72 hrs by Ames test
Type: toxicity
Conditions: salmonella enterica subsp. enterica serovar typhimurium
For `Cc1ccc(C(C)C)c(OCc2nc(N)nc(N3CCN(C)CC3)n2)c1`, the Activity was 4.

Tested on: not listed separately
Test: Selectivity ratio of CC50 for cytotoxicity against human SH-SY5Y cells to ratio of Ki for human 5-HT6R expressed in human HEK293 cells
Conditions: not given
For `Cc1ccc(C(C)C)c(OCc2nc(N)nc(N3CCN(C)CC3)n2)c1`, the Selectivity ratio was over 4000.

Molecular target: T1, 5-hydroxytryptamine receptor 6 (Homo sapiens, UniProt P50406)
T1 sequence (P50406 whole entry): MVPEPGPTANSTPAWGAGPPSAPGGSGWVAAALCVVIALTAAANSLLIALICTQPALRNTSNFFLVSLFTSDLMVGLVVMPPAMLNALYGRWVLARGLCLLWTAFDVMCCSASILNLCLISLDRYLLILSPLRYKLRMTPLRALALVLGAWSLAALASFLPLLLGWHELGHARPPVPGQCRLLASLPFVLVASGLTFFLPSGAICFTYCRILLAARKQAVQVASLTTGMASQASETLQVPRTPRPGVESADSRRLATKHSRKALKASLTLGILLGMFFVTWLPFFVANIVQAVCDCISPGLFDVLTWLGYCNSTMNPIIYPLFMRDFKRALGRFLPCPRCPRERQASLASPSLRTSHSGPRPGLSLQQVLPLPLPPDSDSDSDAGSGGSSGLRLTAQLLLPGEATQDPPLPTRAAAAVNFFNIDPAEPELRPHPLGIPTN
Test: Agonist activity at recombinant human 5HT6 receptor expressed in CHOK1 cells co-expressing Galpha16/aequorin assessed as increase in calcium mobilization and measured for 60 secs in presence of coelenterazine by luminescence assay relative to control
Type: functional, cell-based
Conditions: not given
Work on `CN1CCN2c3ccccc3Cc3ccccc3C2C1` (stereo not drawn) yielded an Emax of 1%.
`Cc1ccc(C(C)C)c(OCc2nc(N)nc(N3CCN(C)CC3)n2)c1` showed an Emax of 1%.
Work on `O=S(=O)(c1ccccc1)c1cnc2c(N3CCNCC3)cccc2c1` yielded an Emax of 2%.

Molecular target: 5-hydroxytryptamine receptor 2A (Homo sapiens, UniProt P28223)
Sequence (P28223 whole entry): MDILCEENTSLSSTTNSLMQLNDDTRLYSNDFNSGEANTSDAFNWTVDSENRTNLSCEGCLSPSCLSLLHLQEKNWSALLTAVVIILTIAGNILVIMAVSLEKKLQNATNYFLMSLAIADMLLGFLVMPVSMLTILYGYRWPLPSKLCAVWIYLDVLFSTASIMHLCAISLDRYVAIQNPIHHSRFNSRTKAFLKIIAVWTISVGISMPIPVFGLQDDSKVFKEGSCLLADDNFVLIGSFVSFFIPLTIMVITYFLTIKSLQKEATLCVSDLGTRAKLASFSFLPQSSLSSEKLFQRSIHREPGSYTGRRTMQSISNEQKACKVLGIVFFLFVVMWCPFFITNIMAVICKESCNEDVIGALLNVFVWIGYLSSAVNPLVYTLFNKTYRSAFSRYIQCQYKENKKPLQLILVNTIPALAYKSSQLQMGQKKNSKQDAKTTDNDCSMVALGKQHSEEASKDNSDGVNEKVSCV
Test: Displacement of [3H]-Ketanserin from human 5-HT2A expressed in CHO-K1 cells incubated for […] by radioligand binding assay
Type: cell-based
Conditions: not given
With `Cc1ccccc1OCc1nc(N)nc(N2CCN(C)CC2)n1` the Ki was 17200 nM.
For `CN1CCN(c2nc(N)nc(COc3ccccc3)n2)CC1`, the Ki was 2630 nM.
`CC(Oc1cccc(Cl)c1)c1nc(N)nc(N2CCN(C)CC2)n1` (stereo not drawn) gave a Ki of 590 nM.

Molecular target: T1, 5-hydroxytryptamine receptor 6
Test: Antagonist activity at recombinant human 5HT6 receptor expressed in CHOK1 cells co-expressing Galpha16/aequorin assessed as reduction in serotonin-induced calcium mobilization flux preincubated for 30 mins followed by serotonin addition in presence of coelenterazine h by luminescence assay
Type: functional, cell-based
Conditions: not given
Work on `Cc1ccc(C(C)C)c(OCc2nc(N)nc(N3CCN(C)CC3)n2)c1` yielded a Kb of 4.6 nM.

Tested on: SH-SY5Y
Test: Cytotoxicity against human SH-SY5Y cells assessed as decrease in cell viability at 100 uM incubated for 72 hrs by MTS assay
Type: cell-based
Conditions: not given
In the case of `Cc1ccc(C(C)C)c(OCc2nc(N)nc(N3CCN(C)CC3)n2)c1`, the Activity is reported as “Toxic”.

Tested on: Rattus norvegicus
Test: Antidepressant activity in Wistar rat assessed as rear movement moved at 0.3 mg/kg, ip pretreated for 60 mins and measured for 5 mins by open field test (reference value: 57 +/- 6)
Type: functional
Conditions: not given
Work on `Cc1ccc(C(C)C)c(OCc2nc(N)nc(N3CCN(C)CC3)n2)c1` yielded an Activity of 56.

Tested on: not listed separately
Test: Ratio of test compound CC50 to doxorubicin CC50 for cytotoxicity against human SH-SY5Y cells incubated for 72 hrs by MTS assay
Type: cell-based
Conditions: not given
`Cc1ccc(C(C)C)c(OCc2nc(N)nc(N3CCN(C)CC3)n2)c1` showed a selectivity ratio at 72 h of 100.

Molecular target: D(2) dopamine receptor (Homo sapiens, UniProt P14416)
Sequence (P14416 whole entry): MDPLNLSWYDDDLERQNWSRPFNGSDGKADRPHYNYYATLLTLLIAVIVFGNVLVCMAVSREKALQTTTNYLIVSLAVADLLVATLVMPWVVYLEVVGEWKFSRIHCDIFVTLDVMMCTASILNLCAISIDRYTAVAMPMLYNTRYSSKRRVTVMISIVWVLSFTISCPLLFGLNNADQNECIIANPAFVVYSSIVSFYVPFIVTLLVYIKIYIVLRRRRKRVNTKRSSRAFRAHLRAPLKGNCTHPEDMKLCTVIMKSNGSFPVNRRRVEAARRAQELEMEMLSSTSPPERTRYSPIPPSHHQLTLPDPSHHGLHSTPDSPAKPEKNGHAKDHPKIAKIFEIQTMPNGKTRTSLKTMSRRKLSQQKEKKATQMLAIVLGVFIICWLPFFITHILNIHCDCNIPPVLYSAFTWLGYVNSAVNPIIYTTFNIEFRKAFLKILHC
Test: Displacement of [3H]-raclopride from human D2L receptor expressed in human HEK293 cells incubated for 1 hr by radioligand binding assay
Type: cell-based
Conditions: not given
In the case of `CC([Se]c1ccccc1)c1nc(N)nc(N2CCN(C)CC2)n1` (stereo not drawn), the Ki is reported as 656 nM.
With `CN1CCN(c2nc(N)nc(C[Se]c3ccccc3)n2)CC1` the Ki was 506 nM.
With `Cc1ccccc1OCc1nc(N)nc(N2CCN(C)CC2)n1` the Ki was 4250 nM.
`CN1CCN(c2nc(N)nc(COc3ccccc3Cl)n2)CC1` showed a Ki of 2360 nM.
`CN1CCN(c2nc(N)nc(COc3ccccc3)n2)CC1` gave a Ki of 1350 nM.
`CC(Oc1cccc(Cl)c1)c1nc(N)nc(N2CCN(C)CC2)n1` (stereo not drawn) gave a Ki of 566 nM.
Compound `Cc1ccc(OCc2nc(N)nc(N3CCN(C)CC3)n2)cc1` has a Ki of 2920 nM.

Tested on: Rattus norvegicus
Test: Antidepressant-like activity in Wistar rat assessed as total distance moved at 0.3 mg/kg, ip pretreated for 60 mins and measured for 5 mins by open field test (reference value: 2165 +/- 119 cm)
Type: functional
Conditions: not given
In the case of `Cc1ccc(C(C)C)c(OCc2nc(N)nc(N3CCN(C)CC3)n2)c1`, the Activity is reported as 2833 cm.

Molecular target: T1, 5-hydroxytryptamine receptor 6
Test: Displacement of [3H]-LSD from human 5-HT6R expressed in human HEK293 cells incubated for 1 hr by radioligand binding assay
Type: cell-based
Conditions: not given
In the case of `Cc1ccc(C(C)C)c(OCc2nc(N)nc(N3CCN(C)CC3)n2)c1`, the Ki is reported as 11 nM.
For `Cc1ccccc1OCc1nc(N)nc(N2CCN(C)CC2)n1`, the Ki was 87 nM.
Work on `CN1CCN(c2nc(N)nc(COc3ccccc3Cl)n2)CC1` yielded a Ki of 129 nM.
In the case of `CC(Oc1cccc(Cl)c1)c1nc(N)nc(N2CCN(C)CC2)n1` (stereo not drawn), the Ki is reported as 118 nM.
In the case of `Cc1ccc(OCc2nc(N)nc(N3CCN(C)CC3)n2)cc1`, the Ki is reported as 235 nM.

Molecular target: T2, 5-hydroxytryptamine receptor 1A (Homo sapiens, UniProt P08908)
T2 sequence (P08908 whole entry): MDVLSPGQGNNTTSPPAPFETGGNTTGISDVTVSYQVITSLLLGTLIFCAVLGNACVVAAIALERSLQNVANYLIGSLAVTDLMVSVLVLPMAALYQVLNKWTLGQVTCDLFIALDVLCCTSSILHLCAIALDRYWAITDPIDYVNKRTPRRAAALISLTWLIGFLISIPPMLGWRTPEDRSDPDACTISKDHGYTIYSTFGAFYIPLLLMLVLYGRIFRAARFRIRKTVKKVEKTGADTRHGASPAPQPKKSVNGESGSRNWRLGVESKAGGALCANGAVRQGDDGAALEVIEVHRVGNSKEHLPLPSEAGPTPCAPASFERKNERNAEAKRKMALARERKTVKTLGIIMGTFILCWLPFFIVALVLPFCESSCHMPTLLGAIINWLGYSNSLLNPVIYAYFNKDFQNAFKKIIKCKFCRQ
Test: Displacement of [3H]-8-OH-DPAT from human 5-HT1A expressed in human HEK293 cells assessed as inhibitory constant incubated for 1 hr by radioligand binding assay
Type: cell-based
Conditions: not given
`Cc1ccccc1OCc1nc(N)nc(N2CCN(C)CC2)n1` showed a Ki of 14200 nM.
For `CN1CCN(c2nc(N)nc(COc3ccccc3Cl)n2)CC1`, the Ki was 5470 nM.
For `CN1CCN(c2nc(N)nc(COc3ccccc3)n2)CC1`, the Ki was 8730 nM.
`CC(Oc1cccc(Cl)c1)c1nc(N)nc(N2CCN(C)CC2)n1` (stereo not drawn) showed a Ki of 3440 nM.
Work on `Cc1ccc(OCc2nc(N)nc(N3CCN(C)CC3)n2)cc1` yielded a Ki of 28500 nM.

Tested on: Rattus norvegicus
Test: Antidepressant activity in Wistar rat assessed as ambulation-Y movement moved at 0.3 mg/kg, ip pretreated for 60 mins and measured for 5 mins by open field test (reference value: 187 +/- 15)
Type: functional
Conditions: not given
In the case of `Cc1ccc(C(C)C)c(OCc2nc(N)nc(N3CCN(C)CC3)n2)c1`, the Activity is reported as 290.

Tested on: not listed separately
Test: Mutagenicity in Salmonella typhimurium TA100 assessed as fold increase over MCB at 1 uM preincubated for 90 mins and measured after 72 hrs by Ames test
Type: toxicity
Conditions: salmonella enterica subsp. enterica serovar typhimurium
In the case of `Cc1ccc(C(C)C)c(OCc2nc(N)nc(N3CCN(C)CC3)n2)c1`, the “fold change (FC)” value is reported as 0.55.

Tested on: not listed separately
Test: Mutagenicity in Salmonella typhimurium TA100 assessed as increase in revertant colonies at 1 uM preincubated for 90 mins and measured after 72 hrs by Ames test
Type: toxicity
Conditions: salmonella enterica subsp. enterica serovar typhimurium
`Cc1ccc(C(C)C)c(OCc2nc(N)nc(N3CCN(C)CC3)n2)c1` showed an Activity of 4.67.

Tested on: Rattus norvegicus
Test: Antidepressant activity in Wistar rat assessed as reduction in immobility at 0.3 to 3 mg/kg, ip measured after 60 mins by forced swim test
Type: functional
Parameters: scale not given: the % may be the effect or the level left
Conditions: not given
Work on `Cc1ccc(C(C)C)c(OCc2nc(N)nc(N3CCN(C)CC3)n2)c1` yielded an Activity of 20%.
